*1 amine or outer side, *2 acyl side, *3 side chain or, on linkers, in order; H or OH if unused. Where a SMILES comes first, the peptide text is derived from it. Bridges are numbered along the chain shown (N, C = ends). [ ]: non-standard residue; d: D form. The star is where a group is joined. hPhe(3-Cl-4-CF3) = N[C@@H](CCc1ccc(C(F)(F)F)c(Cl)c1)C(=O)O; NPrPhe(4-CF3) = CCCN[C@@H](Cc1ccc(C(F)(F)F)cc1)C(=O)O; Pro(4-spirocPr) = O=C(O)[C@@H]1CC2(CC2)CN1; Morpholine(3S-CO) = O=C(O)[C@@H]1COCCN1; Pip(4,4-F2) = O=C(O)[C@@H]1CC(F)(F)CCN1; NMeGly(cPent) = CN[C@H](C(=O)O)C1CCCC1; X46 = CC1(C)CN([*:1])[C@@H]1C(=O)[*:2]; Hyp = O=C(O)[C@@H]1C[C@@H](O)CN1; NMeD = CN[C@@H](CC(=O)O)C(=O)O; NMeL = CN[C@@H](CC(C)C)C(=O)O; X14 = N#CCN(CC(=O)[*:2])[*:1]; hPip = O=C(O)[C@@H]1CCCCCN1; Pip = O=C(O)[C@@H]1CCCCN1; Morpholide = C1CN(*)CCO1; NMeA = CN[C@@H](C)C(=O)O; Ac5c = NC1(C(=O)O)CCCC1; Aze = O=C(O)[C@@H]1CCN1; Abu = CC[C@H](N)C(=O)O; NPrGly = CCCNCC(=O)O; NEtG = CCNCC(=O)O; Sar = CNCC(=O)O
What was measured:
[1] = target: GDP-bound NRAS wild-type protein (Homo sapiens, UniProt P01111); test: Binding to NRAS by surface plasmon resonance (SPR), Single Cycle Kinetics; conditions: KD ratio NRAS/KRAS, SPR
[2] = target: GDP-bound HRAS wild-type protein (Homo sapiens, UniProt P01112); test: Binding to HRAS by surface plasmon resonance (SPR), Single Cycle Kinetics; conditions: KD ratio HRAS/KRAS, SPR
Sequence of GDP-bound HRAS wild-type protein (P01112 whole entry): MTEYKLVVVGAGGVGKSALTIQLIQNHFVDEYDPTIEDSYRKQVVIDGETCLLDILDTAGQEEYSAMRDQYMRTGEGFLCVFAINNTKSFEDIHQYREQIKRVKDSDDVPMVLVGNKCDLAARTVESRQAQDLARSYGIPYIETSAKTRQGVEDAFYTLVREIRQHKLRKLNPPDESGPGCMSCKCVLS

Sequence of GDP-bound NRAS wild-type protein (P01111 whole entry): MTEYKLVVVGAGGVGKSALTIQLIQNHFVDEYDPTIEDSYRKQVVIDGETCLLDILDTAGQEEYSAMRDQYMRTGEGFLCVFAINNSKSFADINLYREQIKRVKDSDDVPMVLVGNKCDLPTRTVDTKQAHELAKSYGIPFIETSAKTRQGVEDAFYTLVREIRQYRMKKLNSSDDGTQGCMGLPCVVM

SMILES	NRAS/KRAS (ratio of KD for GDP-bound NRAS wild-type to KD for KRAS) [1]	HRAS/KRAS (ratio of KD for GDP-bound HRAS wild-type to KD for KRAS) [2]
CCCN1C(=O)[C@@H]2CCN2C(=O)CN(CC#N)C(=O)[C@H]([C@@H](C)CC)NC(=O)[C@H](CC(C)C)N(C)C(=O)C[C@@H](C(=O)N2CCOCC2)N(C)C(=O)[C@H](C2CCCC2)N(C)C(=O)C2(CCCC2)NC(=O)[C@@H]2CCCN2C(=O)[C@H](CCc2ccc(C(F)(F)F)c(Cl)c2)NC(=O)CN(C)C(=O)[C@@H]1Cc1ccc(C(F)(F)F)cc1 [PP0275] ([NMeL]I[X14][Aze][NPrPhe(4-CF3)][Sar][hPhe(3-Cl-4-CF3)]P[Ac5c][NMeGly(cPent)][NMeD]-Morpholide; lactam N-11)	C (A compound having a KD ratio of 0.1 or more and less than 3 is denoted as C)	C (A compound having a KD ratio of 0.1 or more and less than 3 is denoted as C)
CCCN1C(=O)[C@@H]2CCN2C(=O)[C@H]2N(CC2(C)C)C(=O)[C@H]([C@@H](C)CC)NC(=O)[C@H](CC(C)C)N(C)C(=O)C[C@@H](C(=O)N2CCOCC2)N(C)C(=O)[C@H](C2CCCC2)N(C)C(=O)C2(CCCC2)NC(=O)[C@@H]2CCCN2C(=O)[C@H](CCc2ccc(C(F)(F)F)c(Cl)c2)NC(=O)CN(C)C(=O)[C@@H]1Cc1ccc(C(F)(F)F)cc1 [PP0277] ([NMeL]I[X46][Aze][NPrPhe(4-CF3)][Sar][hPhe(3-Cl-4-CF3)]P[Ac5c][NMeGly(cPent)][NMeD]-Morpholide; lactam N-11)	C (A compound having a KD ratio of 0.1 or more and less than 3 is denoted as C)	C (A compound having a KD ratio of 0.1 or more and less than 3 is denoted as C)
CCCN1C(=O)[C@@H]2CCN2C(=O)[C@H](C)N(C)C(=O)[C@H]([C@@H](C)CC)NC(=O)[C@H](CC(C)C)N(C)C(=O)C[C@@H](C(=O)N2CCOCC2)N(C)C(=O)[C@H](C2CCCC2)N(C)C(=O)C2(CCCC2)NC(=O)[C@@H]2CCN2C(=O)[C@H](CCc2ccc(C(F)(F)F)c(Cl)c2)NC(=O)CN(C)C(=O)[C@@H]1Cc1ccc(C(F)(F)F)cc1 [PP0281] ([NMeL]I[NMeA][Aze][NPrPhe(4-CF3)][Sar][hPhe(3-Cl-4-CF3)][Aze][Ac5c][NMeGly(cPent)][NMeD]-Morpholide; lactam N-11)	C (A compound having a KD ratio of 0.1 or more and less than 3 is denoted as C)	C (A compound having a KD ratio of 0.1 or more and less than 3 is denoted as C)
CCCN1C(=O)[C@@H]2CCN2C(=O)[C@H](C)N(C)C(=O)[C@H]([C@@H](C)CC)NC(=O)[C@H](CC(C)C)N(C)C(=O)C[C@@H](C(=O)N2CCOCC2)N(C)C(=O)[C@H](C2CCCC2)N(C)C(=O)C2(CCCC2)NC(=O)[C@@H]2CC3(CC3)CN2C(=O)[C@H](CCc2ccc(C(F)(F)F)c(Cl)c2)NC(=O)CN(C)C(=O)[C@@H]1Cc1ccc(C(F)(F)F)cc1 [PP0282] ([NMeL]I[NMeA][Aze][NPrPhe(4-CF3)][Sar][hPhe(3-Cl-4-CF3)][Pro(4-spirocPr)][Ac5c][NMeGly(cPent)][NMeD]-Morpholide; lactam N-11)	C (A compound having a KD ratio of 0.1 or more and less than 3 is denoted as C)	C (A compound having a KD ratio of 0.1 or more and less than 3 is denoted as C)
CCCN1C(=O)[C@@H]2CCN2C(=O)[C@H](C)N(C)C(=O)[C@H]([C@@H](C)CC)NC(=O)[C@H](CC(C)C)N(C)C(=O)C[C@@H](C(=O)N2CCOCC2)N(C)C(=O)[C@H](C2CCCC2)N(C)C(=O)C2(CCCC2)NC(=O)[C@@H]2C[C@@H](OC)CN2C(=O)[C@H](CCc2ccc(C(F)(F)F)c(Cl)c2)NC(=O)CN(C)C(=O)[C@@H]1Cc1ccc(C(F)(F)F)cc1 [PP0283] ([NMeL]I[NMeA][Aze][NPrPhe(4-CF3)][Sar][hPhe(3-Cl-4-CF3)][Hyp](Me)[Ac5c][NMeGly(cPent)][NMeD]-Morpholide; lactam N-11)	C (A compound having a KD ratio of 0.1 or more and less than 3 is denoted as C)	C (A compound having a KD ratio of 0.1 or more and less than 3 is denoted as C)
CCCN1C(=O)[C@@H]2CCN2C(=O)[C@H](C)N(C)C(=O)[C@H]([C@@H](C)CC)NC(=O)[C@H](CC(C)C)N(C)C(=O)C[C@@H](C(=O)N2CCOCC2)N(C)C(=O)[C@H](C2CCCC2)N(C)C(=O)C2(CCCC2)NC(=O)[C@@H]2CCCCN2C(=O)[C@H](CCc2ccc(C(F)(F)F)c(Cl)c2)NC(=O)CN(C)C(=O)[C@@H]1Cc1ccc(C(F)(F)F)cc1 [PP0284] ([NMeL]I[NMeA][Aze][NPrPhe(4-CF3)][Sar][hPhe(3-Cl-4-CF3)][Pip][Ac5c][NMeGly(cPent)][NMeD]-Morpholide; lactam N-11)	C (A compound having a KD ratio of 0.1 or more and less than 3 is denoted as C)	B (a compound having 3 or more and less than 10 is denoted as B)
CCCN1C(=O)[C@@H]2CCN2C(=O)[C@H](C)N(C)C(=O)[C@H]([C@@H](C)CC)NC(=O)[C@H](CC(C)C)N(C)C(=O)C[C@@H](C(=O)N2CCOCC2)N(C)C(=O)[C@H](C2CCCC2)N(C)C(=O)C2(CCCC2)NC(=O)[C@@H]2CC(F)(F)CCN2C(=O)[C@H](CCc2ccc(C(F)(F)F)c(Cl)c2)NC(=O)CN(C)C(=O)[C@@H]1Cc1ccc(C(F)(F)F)cc1 [PP0285] ([NMeL]I[NMeA][Aze][NPrPhe(4-CF3)][Sar][hPhe(3-Cl-4-CF3)][Pip(4,4-F2)][Ac5c][NMeGly(cPent)][NMeD]-Morpholide; lactam N-11)	C (A compound having a KD ratio of 0.1 or more and less than 3 is denoted as C)	B (a compound having 3 or more and less than 10 is denoted as B)
CCCN1C(=O)[C@@H]2CCN2C(=O)[C@H](C)N(C)C(=O)[C@H]([C@@H](C)CC)NC(=O)[C@H](CC(C)C)N(C)C(=O)C[C@@H](C(=O)N2CCOCC2)N(C)C(=O)[C@H](C2CCCC2)N(C)C(=O)C2(CCCC2)NC(=O)[C@@H]2COCCN2C(=O)[C@H](CCc2ccc(C(F)(F)F)c(Cl)c2)NC(=O)CN(C)C(=O)[C@@H]1Cc1ccc(C(F)(F)F)cc1 [PP0286] ([NMeL]I[NMeA][Aze][NPrPhe(4-CF3)][Sar][hPhe(3-Cl-4-CF3)][Morpholine(3S-CO)][Ac5c][NMeGly(cPent)][NMeD]-Morpholide; lactam N-11)	C (A compound having a KD ratio of 0.1 or more and less than 3 is denoted as C)	B (a compound having 3 or more and less than 10 is denoted as B)
CCCN1C(=O)[C@@H]2CCN2C(=O)[C@H](C)N(C)C(=O)[C@H]([C@@H](C)CC)NC(=O)[C@H](CC(C)C)N(C)C(=O)C[C@@H](C(=O)N2CCOCC2)N(C)C(=O)[C@H](C2CCCC2)N(C)C(=O)C2(CCCC2)NC(=O)CN(C)C(=O)[C@H](CCc2ccc(C(F)(F)F)c(Cl)c2)NC(=O)CN(C)C(=O)[C@@H]1Cc1ccc(C(F)(F)F)cc1 [PP0287] ([NMeL]I[NMeA][Aze][NPrPhe(4-CF3)][Sar][hPhe(3-Cl-4-CF3)][Sar][Ac5c][NMeGly(cPent)][NMeD]-Morpholide; lactam N-11)	C (A compound having a KD ratio of 0.1 or more and less than 3 is denoted as C)	C (A compound having a KD ratio of 0.1 or more and less than 3 is denoted as C)
CCCN1CC(=O)NC2(CCCC2)C(=O)N(C)[C@@H](C2CCCC2)C(=O)N(C)[C@H](C(=O)N2CCOCC2)CC(=O)N(C)[C@@H](CC(C)C)C(=O)N[C@@H]([C@@H](C)CC)C(=O)N(C)[C@@H](C)C(=O)N2CC[C@H]2C(=O)N(CCC)[C@@H](Cc2ccc(C(F)(F)F)cc2)C(=O)N(C)CC(=O)N[C@@H](CCc2ccc(C(F)(F)F)c(Cl)c2)C1=O [PP0288] ([NMeL]I[NMeA][Aze][NPrPhe(4-CF3)][Sar][hPhe(3-Cl-4-CF3)][NPrGly][Ac5c][NMeGly(cPent)][NMeD]-Morpholide; lactam N-11)	C (A compound having a KD ratio of 0.1 or more and less than 3 is denoted as C)	B (a compound having 3 or more and less than 10 is denoted as B)
CCCN1C(=O)CN(C)C(=O)CN(CC)C(=O)[C@H]([C@@H](C)CC)NC(=O)[C@@H]2CCCCCN2C(=O)C[C@@H](C(=O)N2CCOCC2)N(C)C(=O)[C@H](C2CCCC2)N(C)C(=O)C2(CCCC2)NC(=O)[C@@H]2CCCN2C(=O)[C@H](CCc2ccc(C(F)(F)F)c(Cl)c2)NC(=O)CN(C)C(=O)[C@@H]1Cc1ccc(C(F)(F)F)cc1 [PP0289] ([hPip]I[NEtG][Sar][NPrPhe(4-CF3)][Sar][hPhe(3-Cl-4-CF3)]P[Ac5c][NMeGly(cPent)][NMeD]-Morpholide; lactam N-11)	B (a compound having 3 or more and less than 10 is denoted as B)	B (a compound having 3 or more and less than 10 is denoted as B)
CCCN1C(=O)CN(C)C(=O)CN(CC)C(=O)[C@H](CC)NC(=O)[C@H](CC(C)C)N(C)C(=O)C[C@@H](C(=O)N2CCOCC2)N(C)C(=O)[C@H](C2CCCC2)N(C)C(=O)C2(CCCC2)NC(=O)[C@@H]2CCCN2C(=O)[C@H](CCc2ccc(C(F)(F)F)c(Cl)c2)NC(=O)CN(C)C(=O)[C@@H]1Cc1ccc(C(F)(F)F)cc1 [PP0290] ([NMeL][Abu][NEtG][Sar][NPrPhe(4-CF3)][Sar][hPhe(3-Cl-4-CF3)]P[Ac5c][NMeGly(cPent)][NMeD]-Morpholide; lactam N-11)	B (a compound having 3 or more and less than 10 is denoted as B)	C (A compound having a KD ratio of 0.1 or more and less than 3 is denoted as C)
